Results on twelve compounds are retold here after PubChem BioAssay (NCI).

Test in all cases: inhibition of tumour cell growth, NCI panel, 48 h
In experiment [1] the test system is BT-549 breast.
Experiment [2] deals with DU-145 prostate.
The subject of experiment [3] is HS 578T breast.
For experiment [4], the system named is MCF7 breast.
Experiment [5] has as its system MDA-MB-231 breast.
Experiment [6] relates to MDA-MB-435.
Experiment [7] has as its system NCI-H226 lung.

Each structure is given as a SMILES string.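 Dose response: 5 concentrations. Exposure: 48 h. Format: 96-well plates. Endpoint: linear interpolation; highest concentration if not reached. The concentration for 50% growth inhibition is given as GI50. TGI: total growth inhibition.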

`COc1ccc2[nH]c3c4[nH]c5ccc(OC)cc5c4c4c(c3c2c1)C(=O)NC4=O`: the GI50 is above 9.4 µM in experiment [1]; above 15.1 µM in experiment [2]; 1.35 µM in experiment [3]; above 25 µM in experiment [4]; above 25 µM in experiment [5]; above 12.6 µM in experiment [6]. In addition, in experiment [7], the GI50 was above 25 µM. Also, the TGI in experiment [1], in experiment [2], in experiment [3], in experiment [4], in experiment [5] and in experiment [6] was above 25 µM in each case. The same compound showed a TGI in experiment [7] above 25 µM.
Regarding `CN1CCc2nc(N)nc(-c3nc(N)nc4c3CN(C)CC4)c2C1`, the TGI in experiment [1], in experiment [2], in experiment [3], in experiment [4], in experiment [5] and in experiment [6] was above 100 µM in each case. The TGI in experiment [7] is above 100 µM.
Regarding `Nc1nc(Nc2cccnc2)sc1C(=O)c1ccccc1F`, the GI50 in experiment [1] was 1.64 µM; in experiment [2] it was 3.38 µM; in experiment [3], 3.02 µM; in experiment [4], 1.94 µM; in experiment [5] it was 3.47 µM; in experiment [6] it was 3.74 µM. In addition, the GI50 in experiment [7] was 2.67 µM. In addition, the TGI is 6.54 µM in experiment [1]; above 100 µM in experiment [2]; 10.8 µM in experiment [3]; 8.41 µM in experiment [4]; above 100 µM in experiment [5]; 24.3 µM in experiment [6]. The compound further had a TGI in experiment [7] of 31.4 µM.
Regarding `CCc1nc(N)nc(N)c1-c1ccc(NC)c([N+](=O)[O-])c1`, the TGI in experiment [1] is above 100 µM; in experiment [2], above 100 µM; in experiment [3], above 100 µM; in experiment [4], above 87.3 µM; in experiment [5], above 100 µM; in experiment [6], above 100 µM. In addition, the TGI in experiment [7] is above 100 µM.
As to `COc1ccc(/C=C/c2c(C(=O)/C=C/c3ccccc3)c(C)nc3ccccc23)cc1`, the GI50 in experiment [1] is 2 µM; in experiment [2] it was 1.68 µM; in experiment [4], 1.37 µM; in experiment [5], 2.43 µM; in experiment [6], 2.18 µM; in experiment [7], 1.81 µM. Also, the TGI was found to be 5.18 µM in experiment [1]; 3.16 µM in experiment [2]; 7.74 µM in experiment [4]; 7.87 µM in experiment [5]; 5.69 µM in experiment [6]; 4.02 µM in experiment [7].
On to `CN(C)CCNc1ccc(CO)c2oc3ccc(O)cc3c(=O)c12`, for which the TGI was found to be 28.4 µM in experiment [1]; 53.9 µM in experiment [2]; 33.4 µM in experiment [3]; 58.1 µM in experiment [4]; 37.7 µM in experiment [5]; 27.1 µM in experiment [6]. Also, the TGI in experiment [7] is 47.7 µM.
Consider `NC(=O)c1cc(Cl)ccc1NC(=O)/C=C/c1ccccc1`, for which the GI50 in experiment [1] was 4.66 µM; in experiment [2], 3.3 µM; in experiment [3], 3.17 µM; in experiment [4], 1.78 µM; in experiment [5] it was 2.6 µM; in experiment [6], 0.618 µM. In addition, the GI50 in experiment [7] is 6.42 µM. The TGI in experiment [1] is above 100 µM; in experiment [2], above 24.4 µM; in experiment [3] it was above 24.5 µM; in experiment [4], above 100 µM; in experiment [5] it was above 100 µM; in experiment [6], 3.53 µM. The same compound came in with a TGI in experiment [7] above 100 µM.
Turning to `COc1c2c(cc3c1OCO3)[C@]13C=C[C@H](OC)C[C@H]1N(C2)CC3O` (stereo partly specified), the TGI in experiment [1], in experiment [2], in experiment [3], in experiment [4], in experiment [5] and in experiment [6] was above 100 µM in each case. In experiment [7], this compound gave a TGI above 100 µM.
On to `C/C(=N\Nc1ccc(Cl)cn1)c1ccc2ccccc2n1`, for which the GI50 in experiment [1] was 2.62 µM; in experiment [2] it was 4.03 µM; in experiment [3] it was 4.78 µM; in experiment [4] it was 2.85 µM; in experiment [5], 3.36 µM; in experiment [6], 4.45 µM. The GI50 in experiment [7] is 11.5 µM. The TGI in experiment [1], in experiment [2], in experiment [3], in experiment [4], in experiment [5] and in experiment [6] was above 100 µM throughout. The TGI in experiment [7] is above 100 µM.
In the case of `Cc1cc2ncnn2cc1Nc1ncc2c(n1)n(C1CCOCC1)c(=O)n2C`, the GI50 is 2.83 µM in experiment [1]; 6.92 µM in experiment [2]; 2.84 µM in experiment [3]; 3.21 µM in experiment [4]; 5.3 µM in experiment [5]; 8.01 µM in experiment [6]. Moreover, the GI50 in experiment [7] was 7.32 µM. For the same compound, the TGI in experiment [1] is 32.2 µM; in experiment [2] it was above 100 µM; in experiment [3], 23.4 µM; in experiment [4] it was above 100 µM; in experiment [5] it was above 100 µM; in experiment [6], above 100 µM. The compound also displayed a TGI in experiment [7] above 100 µM.
As to `COc1ccc(-c2cc(-c3cc(C)cc(Br)c3O)no2)cc1`, the TGI in experiment [1] is 57.1 µM; in experiment [2], 36.2 µM; in experiment [3] it was above 100 µM; in experiment [4], 42.4 µM; in experiment [5], 64.6 µM; in experiment [6] it was above 100 µM. The TGI in experiment [7] was determined as 42.4 µM.
For `O=c1cc(NCC(O)CN2CCCC2)n(Cc2ccccc2)c(=O)n1Cc1ccccc1` (stereo unspecified), the GI50 was 61.6 µM in experiment [1]; 87 µM in experiment [2]; 37 µM in experiment [3]; 19.1 µM in experiment [4]; 26.3 µM in experiment [5]; 26.7 µM in experiment [6]. Also, the GI50 in experiment [7] is above 100 µM. For the same compound, the TGI in experiment [1] is above 100 µM; in experiment [2], above 100 µM; in experiment [3] it was above 100 µM; in experiment [4], 34.8 µM; in experiment [5], 70.6 µM; in experiment [6], 65.8 µM. This compound had a TGI in experiment [7] above 100 µM.
